Assay results: article PMC10354055, “An optimized Nurr1 agonist provides disease-modifying effects in Parkinson’s disease models” (Nature Communications, 2023)
Several values for one entry are separate records, joined by “and”; a condition that tells them apart may be missing. Equal values may be shown once.

Assays:
Assay in all cases: Luciferase assay with point-mutants of Nurr1-LBD, SK-N-BE(2)C cells;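 note: Firefly luciferase normalized to beta-galactosidase activity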
Assay type in all cases: cell-based
[1] = molecular target: T1, Nurr1-LBD point mutants (Mus musculus, UniProt Q06219); conditions: Supplementary Fig. 2, WT
T1 construct: expressed in transfected cells; host or cells: SK-N-BE(2)C
T1 sequence (Q06219 whole entry, change not shown, the tested form may be a part): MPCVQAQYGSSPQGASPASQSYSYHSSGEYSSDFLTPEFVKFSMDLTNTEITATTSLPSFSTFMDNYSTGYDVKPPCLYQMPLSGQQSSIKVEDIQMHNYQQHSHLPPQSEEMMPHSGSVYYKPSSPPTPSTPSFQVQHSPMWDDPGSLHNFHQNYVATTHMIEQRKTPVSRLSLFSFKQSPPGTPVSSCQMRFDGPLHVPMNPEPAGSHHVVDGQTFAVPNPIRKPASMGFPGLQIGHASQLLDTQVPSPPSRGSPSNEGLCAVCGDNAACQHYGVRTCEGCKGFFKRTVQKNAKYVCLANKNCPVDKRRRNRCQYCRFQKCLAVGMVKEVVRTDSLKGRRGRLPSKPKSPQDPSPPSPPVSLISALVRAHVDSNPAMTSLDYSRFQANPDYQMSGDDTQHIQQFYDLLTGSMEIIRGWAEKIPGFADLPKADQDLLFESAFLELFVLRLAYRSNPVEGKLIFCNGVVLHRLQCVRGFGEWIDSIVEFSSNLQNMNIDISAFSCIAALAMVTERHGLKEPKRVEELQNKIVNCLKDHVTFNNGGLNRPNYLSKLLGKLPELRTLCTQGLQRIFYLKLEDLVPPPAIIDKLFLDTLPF
Method: (§1) Nurr1 transactivity was normalized to β-galactosidase activity.
(§2) Nurr1 mutants were generated using the QuikChange ǁ XL site-directed mutagenesis kit (Agilent Technologies) according to the manufacturer’s instruction. Mutagenesis reactions were carried out on the plasmid of mouse Nurr1 cloned into pcDNA3.1 backbone, and then verified by sequencing.

[2] = molecular target: T2, Nurr1-LBD point mutants (Mus musculus, UniProt Q06219, D594A); conditions: Supplementary Fig. 2, D594A
T2 construct: expressed in transfected cells; host or cells: SK-N-BE(2)C
T2 sequence (Q06219 whole entry D594A, the tested form may be a part): as the sequence (Q06219 whole entry, change not shown, the tested form may be a part) above, with D594A counted along it
Method: as §1, §2

[3] = molecular target: T3, Nurr1-LBD point mutants (Mus musculus, UniProt Q06219, K590A); conditions: Supplementary Fig. 2, K590A
T3 construct: expressed in transfected cells; host or cells: SK-N-BE(2)C
T3 sequence (Q06219 whole entry K590A, the tested form may be a part): as the sequence (Q06219 whole entry, change not shown, the tested form may be a part) above, with K590A counted along it
Method: as §1, §2

[4] = molecular target: T4, Nurr1-LBD point mutants (Mus musculus, UniProt Q06219, L593A); conditions: Supplementary Fig. 2, L593A
T4 construct: expressed in transfected cells; host or cells: SK-N-BE(2)C
T4 sequence (Q06219 whole entry L593A, the tested form may be a part): as the sequence (Q06219 whole entry, change not shown, the tested form may be a part) above, with L593A counted along it
Method: as §1, §2

[5] = molecular target: T5, Nurr1-LBD point mutants (Mus musculus, UniProt Q06219, S441A); conditions: Supplementary Fig. 2, S441A
T5 construct: expressed in transfected cells; host or cells: SK-N-BE(2)C
T5 sequence (Q06219 whole entry S441A, the tested form may be a part): as the sequence (Q06219 whole entry, change not shown, the tested form may be a part) above, with S441A counted along it
Method: as §1, §2

CCN(CC)Cc1cc(Nc2ccnc3cc(Cl)ccc23)ccc1O [AQ, amodiaquine]
Luciferase activity (fold) [1]: 16.1226 fold and 16.0906 fold and 15.547 fold
Luciferase activity (fold) [2]: 15.1749 fold and 15.4902 fold and 14.0814 fold
Luciferase activity (fold) [3]: 14.5075 fold and 14.599 fold and 17.3856 fold
Luciferase activity (fold) [4]: 14.8074 fold and 14.193 fold and 15.2957 fold
Luciferase activity (fold) [5]: 14.9384 fold and 15.2215 fold and 14.6264 fold
